# Data taken from US5481003A, “Protein kinase C inhibitors” (Eli Lilly and Company, priority 1994, dated 1996).
# “Also recorded” adds a separate entry of the source. Like-named read-outs stand apart in the source and are kept apart here.
# Legend:
# protein kinase C eta = protein kinase C eta (Homo sapiens, UniProt P24723); test: PKC Enzyme Assay, eta isozyme; assay type: biochemical; conditions: 30 μM ATP, 30° C., 10 minutes
# Protocol: (§1) PKC enzymes=alpha, beta 1, beta II, gamma, delta, epsilon, eta and zeta.
# (§2) Assay components in a total volume of 250 μL are the following:
# (§3) Vesicles consisting of 120 μg/mL phosphatidylserine (Avanti Polar Lipids)and sufficient diacylglycerol (Avanti Polar Lipids) to activate the enzyme to maximum activity in 20 mM HEPES buffer (Sigma, St. Louis, Mo.), pH 7.5, 940 μM calcium chloride (Sigma, St. Louis, Mo.) for assaying the alpha, beta I, beta II and gamma enzyme only, 1 mM EGTA for all the enzymes, 10 mM magnesium chloride (Sigma, St. Louis, Mo.) and 30 μM (gamma-32P) ATP (DuPont). For all the enzymes either histone type HL (Worthington) or myelin basic protein is used as substrate. The assay is started by addition of protein kinase C enzyme incubated at 30° C. for 10 minutes and stopped by adding 0.5 mL of cold trichloroacetic acid (Amresco) followed by 100 μL of 1 mg/mL bovine serum albumin (Sigma, St. Louis, Mo.). The precipitate is collected by vacuum filtration on glass fiber filters employing a TOMTEC™ filtration system and quantified by counting in a beta scintillation counter.
# PKC isozymes = conditions: cited from earlier work
# protein kinase C beta-2 = protein kinase C beta-2 (Homo sapiens, UniProt P05771); test: PKC Enzyme Assay, beta-2 isozyme; assay type: biochemical; conditions: PKC beta-2; 30 μM ATP, 30° C., 10 minutes; read-out: IC50 β2
# Protocol: as §1, §2, §3
# protein kinase C alpha = protein kinase C alpha (Homo sapiens, UniProt P17252); test: PKC Enzyme Assay, alpha isozyme; assay type: biochemical; conditions: 30 μM ATP, 30° C., 10 minutes
# Protocol: as §1, §2, §3
# protein kinase C delta = protein kinase C delta (Homo sapiens, UniProt Q05655); test: PKC Enzyme Assay, delta isozyme; assay type: biochemical; conditions: 30 μM ATP, 30° C., 10 minutes
# protein kinase C gamma = protein kinase C gamma (Homo sapiens, UniProt P05129); test: PKC Enzyme Assay, gamma isozyme; assay type: biochemical; conditions: 30 μM ATP, 30° C., 10 minutes
# Protocol: as §1, §2, §3
# protein kinase C epsilon = target: T1, protein kinase C epsilon (Homo sapiens, UniProt Q02156); test: PKC Enzyme Assay, epsilon isozyme; assay type: biochemical; conditions: 30 μM ATP, 30° C., 10 minutes
# T1 sequence (Q02156 1-737): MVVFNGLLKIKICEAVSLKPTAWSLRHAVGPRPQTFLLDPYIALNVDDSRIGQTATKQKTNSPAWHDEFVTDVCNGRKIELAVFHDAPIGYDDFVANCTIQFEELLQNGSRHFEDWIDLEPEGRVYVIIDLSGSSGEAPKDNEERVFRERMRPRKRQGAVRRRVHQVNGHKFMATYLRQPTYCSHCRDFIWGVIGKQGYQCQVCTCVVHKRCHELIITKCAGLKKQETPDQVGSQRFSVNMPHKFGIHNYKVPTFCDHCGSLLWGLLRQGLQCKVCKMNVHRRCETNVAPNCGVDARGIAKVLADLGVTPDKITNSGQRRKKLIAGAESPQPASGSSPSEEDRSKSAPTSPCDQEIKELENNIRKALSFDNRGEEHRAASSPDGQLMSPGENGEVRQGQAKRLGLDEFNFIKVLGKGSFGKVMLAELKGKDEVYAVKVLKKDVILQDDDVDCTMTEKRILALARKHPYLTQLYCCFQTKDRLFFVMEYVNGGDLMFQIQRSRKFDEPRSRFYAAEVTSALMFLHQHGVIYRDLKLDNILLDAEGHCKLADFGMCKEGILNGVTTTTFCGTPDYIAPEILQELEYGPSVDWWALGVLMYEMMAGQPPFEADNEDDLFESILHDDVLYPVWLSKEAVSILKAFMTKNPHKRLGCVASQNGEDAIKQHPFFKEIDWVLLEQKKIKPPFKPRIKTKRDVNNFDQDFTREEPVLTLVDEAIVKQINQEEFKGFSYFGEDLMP
# Protocol: as §1, §2, §3
# protein kinase C beta-1 = protein kinase C beta-1 (Homo sapiens, UniProt P05771); test: PKC Enzyme Assay, beta-1 isozyme; assay type: biochemical; conditions: PKC beta-1; 30 μM ATP, 30° C., 10 minutes; read-out: IC50 β1
# Protocol: as §1, §2, §3
# protein kinase C zeta = target: T2, protein kinase C zeta (Homo sapiens, UniProt Q05513); test: PKC Enzyme Assay, zeta isozyme; assay type: biochemical; conditions: 30 μM ATP, 30° C., 10 minutes
# T2 sequence (Q05513 1-592): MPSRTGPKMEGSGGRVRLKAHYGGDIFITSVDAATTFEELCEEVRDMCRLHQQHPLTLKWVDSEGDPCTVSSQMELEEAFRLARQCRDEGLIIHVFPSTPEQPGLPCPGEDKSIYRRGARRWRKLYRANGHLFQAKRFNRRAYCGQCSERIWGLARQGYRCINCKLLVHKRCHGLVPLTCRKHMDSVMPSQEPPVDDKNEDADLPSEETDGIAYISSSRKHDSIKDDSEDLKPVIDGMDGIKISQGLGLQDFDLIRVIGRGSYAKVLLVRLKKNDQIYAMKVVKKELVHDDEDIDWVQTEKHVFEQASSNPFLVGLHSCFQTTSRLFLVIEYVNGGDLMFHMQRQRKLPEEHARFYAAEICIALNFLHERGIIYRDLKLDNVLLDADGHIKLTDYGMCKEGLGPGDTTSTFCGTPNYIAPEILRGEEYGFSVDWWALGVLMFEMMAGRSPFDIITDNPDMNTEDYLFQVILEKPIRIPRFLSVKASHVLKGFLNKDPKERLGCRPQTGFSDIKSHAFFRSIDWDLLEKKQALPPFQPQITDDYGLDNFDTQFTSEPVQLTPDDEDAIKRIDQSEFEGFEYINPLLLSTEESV
# Protocol: as §1, §2, §3
# Sequence of protein kinase C eta (P24723 whole entry): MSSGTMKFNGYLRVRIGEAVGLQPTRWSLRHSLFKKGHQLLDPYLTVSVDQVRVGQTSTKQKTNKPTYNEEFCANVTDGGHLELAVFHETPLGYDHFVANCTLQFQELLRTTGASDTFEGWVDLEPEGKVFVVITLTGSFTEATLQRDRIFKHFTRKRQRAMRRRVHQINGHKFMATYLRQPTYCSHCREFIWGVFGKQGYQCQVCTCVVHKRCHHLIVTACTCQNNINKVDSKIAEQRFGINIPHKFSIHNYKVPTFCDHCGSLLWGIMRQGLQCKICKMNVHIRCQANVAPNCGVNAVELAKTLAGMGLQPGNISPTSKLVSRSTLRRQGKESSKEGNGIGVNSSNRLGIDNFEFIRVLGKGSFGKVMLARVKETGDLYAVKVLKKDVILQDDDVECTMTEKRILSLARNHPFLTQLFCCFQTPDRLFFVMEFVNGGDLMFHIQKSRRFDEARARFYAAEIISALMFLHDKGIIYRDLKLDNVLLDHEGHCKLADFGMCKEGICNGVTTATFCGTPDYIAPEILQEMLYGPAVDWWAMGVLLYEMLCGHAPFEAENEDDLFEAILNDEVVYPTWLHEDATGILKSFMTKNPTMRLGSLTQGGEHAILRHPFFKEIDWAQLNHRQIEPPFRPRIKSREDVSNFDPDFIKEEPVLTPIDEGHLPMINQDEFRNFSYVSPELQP
# Sequence of protein kinase C beta-1 (P05771 whole entry): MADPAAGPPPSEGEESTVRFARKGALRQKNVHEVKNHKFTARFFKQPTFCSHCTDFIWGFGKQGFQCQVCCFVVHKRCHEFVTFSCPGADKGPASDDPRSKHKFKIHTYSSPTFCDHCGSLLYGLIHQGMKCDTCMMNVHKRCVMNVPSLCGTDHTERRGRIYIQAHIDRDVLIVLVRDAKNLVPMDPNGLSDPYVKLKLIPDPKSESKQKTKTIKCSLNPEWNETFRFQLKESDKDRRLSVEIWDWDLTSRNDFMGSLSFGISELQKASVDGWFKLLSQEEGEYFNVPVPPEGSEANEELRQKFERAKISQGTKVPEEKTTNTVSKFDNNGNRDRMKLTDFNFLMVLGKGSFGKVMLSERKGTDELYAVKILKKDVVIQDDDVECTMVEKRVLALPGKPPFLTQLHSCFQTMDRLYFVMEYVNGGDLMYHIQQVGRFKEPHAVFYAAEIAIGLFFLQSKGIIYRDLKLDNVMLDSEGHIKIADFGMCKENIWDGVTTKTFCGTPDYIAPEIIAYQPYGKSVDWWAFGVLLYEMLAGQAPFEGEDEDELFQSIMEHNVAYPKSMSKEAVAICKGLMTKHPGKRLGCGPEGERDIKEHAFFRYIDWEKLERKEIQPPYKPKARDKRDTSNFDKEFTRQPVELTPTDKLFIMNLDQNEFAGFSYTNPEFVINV
# Sequence of protein kinase C delta (Q05655 whole entry): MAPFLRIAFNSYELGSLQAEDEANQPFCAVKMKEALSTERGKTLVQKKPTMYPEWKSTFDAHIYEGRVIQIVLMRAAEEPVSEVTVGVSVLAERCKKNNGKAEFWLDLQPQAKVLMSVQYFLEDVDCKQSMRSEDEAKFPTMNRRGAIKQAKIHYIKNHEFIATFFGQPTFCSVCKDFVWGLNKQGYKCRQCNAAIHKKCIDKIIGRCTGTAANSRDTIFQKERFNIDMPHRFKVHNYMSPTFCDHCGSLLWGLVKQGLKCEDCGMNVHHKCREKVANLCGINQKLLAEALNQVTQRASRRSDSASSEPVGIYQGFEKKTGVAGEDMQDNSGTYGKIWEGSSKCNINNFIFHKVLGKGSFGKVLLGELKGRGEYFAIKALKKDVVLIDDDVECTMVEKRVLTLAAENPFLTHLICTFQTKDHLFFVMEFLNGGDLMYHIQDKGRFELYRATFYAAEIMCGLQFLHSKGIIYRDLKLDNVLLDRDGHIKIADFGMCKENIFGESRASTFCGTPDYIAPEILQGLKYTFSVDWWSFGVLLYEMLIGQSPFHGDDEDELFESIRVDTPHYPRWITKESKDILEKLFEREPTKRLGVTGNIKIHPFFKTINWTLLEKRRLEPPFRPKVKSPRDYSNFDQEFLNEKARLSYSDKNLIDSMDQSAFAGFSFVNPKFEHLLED
# Sequence of protein kinase C beta-2 (P05771 1-673 isoform P05771-2): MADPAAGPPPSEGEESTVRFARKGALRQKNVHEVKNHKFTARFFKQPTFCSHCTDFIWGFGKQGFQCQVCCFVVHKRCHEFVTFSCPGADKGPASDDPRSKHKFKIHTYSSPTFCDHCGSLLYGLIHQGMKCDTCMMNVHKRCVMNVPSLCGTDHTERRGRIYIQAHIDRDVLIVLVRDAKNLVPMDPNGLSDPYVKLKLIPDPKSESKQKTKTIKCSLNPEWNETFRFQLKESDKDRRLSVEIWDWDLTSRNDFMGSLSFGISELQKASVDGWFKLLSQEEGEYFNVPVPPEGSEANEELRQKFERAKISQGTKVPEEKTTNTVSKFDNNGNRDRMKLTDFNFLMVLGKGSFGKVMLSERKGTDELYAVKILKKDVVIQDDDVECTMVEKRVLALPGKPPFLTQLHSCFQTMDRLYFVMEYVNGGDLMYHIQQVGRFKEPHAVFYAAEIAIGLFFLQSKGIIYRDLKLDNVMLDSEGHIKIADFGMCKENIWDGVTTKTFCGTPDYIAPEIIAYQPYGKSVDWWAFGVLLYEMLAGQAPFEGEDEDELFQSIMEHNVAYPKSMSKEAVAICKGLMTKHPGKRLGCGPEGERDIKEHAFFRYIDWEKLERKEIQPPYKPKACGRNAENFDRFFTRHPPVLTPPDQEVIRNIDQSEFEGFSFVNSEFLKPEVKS
structure (smiles),measurement,setting,value
"CC(C)(C)OC(=O)NCC(=O)n1cc(C2=C(c3cn(CCCN=[N+]=[N-])c4ccccc34)C(=O)NC2=O)c2ccccc21 [Example 1, 3-[1-(3-azidopropyl)-3-indolyl]-4-[(1-N-^t BOC )-glycine-3indolyl]-1H-pyrrol-2,5-dione]",IC50,protein kinase C eta,2600 nM
"CN(C)CCCn1cc(C2=C(c3c[nH]c4ccccc34)C(=O)NC2=O)c2ccccc21 [3-[1-(3-dimethylaminopropyl)-indol-3-yl]-4-(1H-indol-3-yl)-1H-pyrrole-2,5-dione]",isozyme selectivity,"PKC isozymes; Martiny-Baron, et al., J. Biol. Chem. 268:9194-9197 (1993)","slight selectivity for isozymes, alpha and beta versus delta, epsilon, and zeta; also recorded: no differences in the selectivity between alpha and beta-1 isozymes"
same,isozyme selectivity,"PKC isozymes; Toullec et al., J. Biol. Chem. 266:15771-15781 (1991)","slight selectivity for the calcium dependent isozymes; also recorded: no isozyme selectivity between alpha, beta-1, beta-2, and gamma"
"CN(C)CCCn1cc(C2=C(c3cn(C(=O)CNC(=O)OC(C)(C)C)c4ccccc34)C(=O)NC2=O)c2ccccc21 [Example 2, 3-[1-(3-N,N'-dimethylaminopropyl)-3-indolyl]-4-[(1-N-^t BOC)-glycine-3-indolyl]-1H-pyrrol-2,5-dione]",IC50,protein kinase C beta-2,40 nM
same,IC50,protein kinase C alpha,2300 nM
same,IC50,protein kinase C delta,2900 nM
same,IC50,protein kinase C gamma,2600 nM
same,IC50,protein kinase C epsilon,6100 nM
same,IC50,protein kinase C beta-1,150 nM
same,IC50,protein kinase C zeta,45000 nM
same,IC50,protein kinase C eta,370 nM
"CC(C)(C)OC(=O)N[C@@H](Cc1ccccc1)C(=O)n1cc(C2=C(c3cn(C(=O)[C@H](Cc4ccccc4)NC(=O)OC(C)(C)C)c4ccccc34)C(=O)NC2=O)c2ccccc21 [Example 3, 3,4-Bis[(1-N-^t BOC)-phenylalanine-3-indolyl]-1H-Pyrrol-2,5-dione]",IC50,protein kinase C beta-1,1000 nM
